Measurements taken from patent publication US9242984B2, “Pyrazolyl derivatives as Syk inhibitors” (Merck Sharp & Dohme Corp., priority 2012, dated 2016).

Molecular target: T1, recombinant human Syk (GST-hSyk fusion protein) (Homo sapiens, UniProt P43405)
T1 construct: purchased Carna Biosciences 08-176
Test: Homogeneous Time-Resolved Fluorescence (HTRF) assay for the recombinant human Syk enzyme
Assay type: biochemical
Details: IC50 class; 10-dose titration, 25 μM ATP; read-out: rhSYK Activity
Outline: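 GST-hSyk (5 pM) preincubated 10 min with compound (0.1% DMSO) in 15 mM Tris-HCl pH 7.5, 2 mM DTT; reaction started with 250 nM biotinylated peptide, 5 mM Mg, 25 μM ATP, 45 min, room temperature. EDTA quench, Eu-anti-phosphotyrosine/SA-APC HTRF read after 30 min; IC50 from 10-dose titration (10 μM–0.508 nM), four-parameter fit.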

| Structure (SMILES) | IC50 |
| --- | --- |
| Cc1cc(Nc2nccc(OC(C)C)n2)cc(-c2cnn(C[C@](C)(O)CO)c2)c1 [Example 2.96, (2S)-2-methyl-3-[4-(3-methyl-5-{[4-(1-methylethoxy)pyrimidin-2-yl]amino}phenyl)-1H-pyrazol-1-yl]propane-1,2-diol] | ≤ 100 nM |
| Cc1cc(-c2cnn(CC(O)CF)c2)cc(N(CC(O)CF)c2nccc(C(F)(F)F)n2)c1 (racemic) [Example 5.13, 1-fluoro-3-({3-[1-(3-fluoro-2-hydroxy-propyl)-1H-pyrazol-4-yl]-5-methyl-phenyl}-[4-(trifluoromethyl)-pyrimidin-2-yl]-amino)propan-2-ol] | 100 to 1000 nM |
| Cc1cc(Nc2nccc(C(F)F)n2)cc(-c2cnn(CC3CCNC(=O)O3)c2)c1 (stereo not drawn) [Example 2.78, 6-{[4-(3-{[4-(difluoromethyl)pyrimidin-2-yl]amino}-5-methylphenyl)-1H-pyrazol-1-yl]methyl}-1,3-oxazinan-2-one] | ≤ 100 nM |
| Cc1cc(Nc2nccc(C(F)F)n2)cc(-c2cnn(CC3OC(=O)NC3C)c2)c1 (single isomer, unassigned) [Example 23.9, 5-{[4-(3-{[4-(difluoromethyl)pyrimidin-2-yl]amino}-5-methylphenyl)-1H-pyrazol-1-yl]methyl}-4-methyl-1,3-oxazolidin-2-one] | ≤ 100 nM |
| Cc1cc(Nc2nccc(C(F)(F)F)n2)cc(-c2cnn(C3CCC(C(=O)O)CC3)c2)c1 (stereo not drawn) [Example 1.56, 4-[4-(3-methyl-5-{[4-(trifluoromethyl)pyrimidin-2-yl]amino}phenyl)-1H-pyrazol-1-yl]cyclohexanecarboxylic acid] | ≤ 100 nM |
| Cc1cc(Nc2ncc(Cl)c(C)n2)cc(-c2cnn(C[C@](C)(O)CO)c2)c1 [Example 2.97, (2S)-3-(4-{3-[(5-chloro-4-methylpyrimidin-2-yl)amino]-5-methylphenyl}-1H-pyrazol-1-yl)-2-methylpropane-1,2-diol] | ≤ 100 nM |
| COC(=O)NC(C)(C)Cn1cc(-c2cc(C)cc(Nc3nccc(C(F)F)n3)c2)cn1 [Example 27.11, methyl {2-[4-(3-{[4-(difluoromethyl)pyrimidin-2-yl]amino}-5-methylphenyl)-1H-pyrazol-1-yl]-1,1-dimethylethyl}carbamate] | ≤ 100 nM |
| Cc1cc(Nc2nccc(C(F)(F)F)n2)cc(-c2cnn(CC3(O)CCOC(C)(C)C3)c2)c1 (stereo not drawn) [Example 12.10, 2,2-dimethyl-4-{[4-(3-methyl-5-{[4-(trifluoro-methyl)pyrimidin-2-yl]amino}phenyl)-1H-pyrazol-1-yl]methyl}-tetrahydro-2H-pyran-4-ol] | ≤ 100 nM |
| Cc1cc(Nc2nccc(C(F)(F)F)n2)cc(-c2cnn(CC3(O)CCC(C(=O)O)C(C)(C)C3)c2)c1 (stereo not drawn) [Example 12.6, 4-hydroxy-2,2-dimethyl-4-{[4-(3-methyl-5-{[4-(trifluoromethyl)pyrimidin-2-yl]amino}phenyl)-1H-pyrazol-1-yl]methyl}-cyclohexanecarboxylic acid] | ≤ 100 nM |
| COCCOC(=O)NC(C)(C)Cn1cc(-c2cc(C)cc(Nc3nccc(C(F)F)n3)c2)cn1 [Example 27.12, 2-methoxyethyl {2-[4-(3-{[4-(difluoromethyl)pyrimidin-2-yl]amino}-5-methylphenyl)-1H-pyrazol-1-yl]-1,1-dimethylethyl}carbamate] | ≤ 100 nM |
| Cc1cc(Nc2nccc(C(F)(F)F)n2)cc(-c2cnn(Cc3ccnnc3)c2)c1 [Example 3.32, N-{3-methyl-5-[1-(pyridazin-4-ylmethyl)-1H-pyrazol-4-yl]phenyl}-4-(trifluoromethyl)pyrimidin-2-amine] | ≤ 100 nM |
| Cc1cc(Nc2nccc(C(F)F)n2)cc(-c2cnn(C(C)C3CNC(=O)O3)c2)c1 (stereo not drawn) [Example 3.93, 5-{1-[4-(3-{[4-(difluoromethyl)pyrimidin-2-yl]amino}-5-methylphenyl)-1H-pyrazol-1-yl]ethyl}-1,3-oxazolidin-2-one] | ≤ 100 nM |
| Cc1cc(Nc2cc(C(F)F)ccn2)nc(-c2cnn(C(C)C3CNC(=O)C3)c2)c1 (stereo not drawn) [Example 1.63, 4-{1-[4-(6-{[4-(difluoromethyl)pyridin-2-yl]amino}-4-methylpyridin-2-yl)-1H-pyrazol-1-yl]ethyl}pyrrolidin-2-one] | ≤ 100 nM |
| O=C1NCC(Cn2cc(-c3cccc(Nc4nccc(C(F)F)n4)c3)cn2)O1 (stereo not drawn) [Example 2.65, 5-{[4-(3-{[4-(difluoromethyl)pyrimidin-2-yl]amino}phenyl)-1H-pyrazol-1-yl]methyl}-1,3-oxazolidin-2-one] | ≤ 100 nM |
| Cc1cc(Nc2nccc(C(F)(F)F)n2)cc(-c2cnn(C3CCC(C(=O)O)CC3O)c2)c1 (stereo not drawn) [Example 5.38, 3-hydroxy-4-[4-(3-methyl-5-{[4-(trifluoromethyl)pyrimidin-2-yl]amino}phenyl)-1H-pyrazol-1-yl]cyclohexanecarboxylic acid] | ≤ 100 nM |
